In patent publication US9242981B2, “Fused pyrazole derivatives as novel ERK inhibitors” (Merck Sharp & Dohme Corp., priority 2010, dated 2016):

biological target: Mouse ERK2 protein (Mus musculus (Mouse), UniProt P63085); experiment: Coupled MEK1/ERK2 IMAP assay or Active ERK2 IMAP assay; assay type: biochemical; conditions: Table 1, class symbols, 30 μM ATP
Sequence (P63085 whole entry): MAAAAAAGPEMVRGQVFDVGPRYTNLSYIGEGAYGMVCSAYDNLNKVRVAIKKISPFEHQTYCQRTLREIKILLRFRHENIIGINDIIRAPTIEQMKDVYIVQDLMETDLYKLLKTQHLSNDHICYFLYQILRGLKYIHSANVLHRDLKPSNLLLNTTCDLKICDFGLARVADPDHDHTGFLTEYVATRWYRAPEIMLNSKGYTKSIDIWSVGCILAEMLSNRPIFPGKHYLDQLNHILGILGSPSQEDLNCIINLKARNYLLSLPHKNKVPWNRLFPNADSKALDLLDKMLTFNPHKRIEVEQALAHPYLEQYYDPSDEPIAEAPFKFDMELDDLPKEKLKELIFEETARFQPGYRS

Row | Structure (SMILES) | IC50 [nM]
1 | COc1cccc(F)c1CN1CCC[C@@H](NC(=O)N2CCc3[nH]nc(-c4ccc(-c5ccccc5)nc4)c3C2)C1 [Compound 138, N-[1-[(2-fluoro-6-methoxyphenyl)methyl]-3(R)-piperidinyl]-1,4,6,7-tetrahydro-3-(6-phenyl-3-pyridinyl)-5H-pyrazolo[4,3-c]pyridine-5-carboxamide] | 101 to 1000
2 | O=C(N[C@@H]1CCCN(Cc2ccccc2)C1)N1CCc2[nH]nc(-c3ccc4c(c3)CCO4)c2C1 [Compound 177, 3-(2,3-dihydro-5-benzofuranyl)-1,4,6,7-tetrahydro-N-[1-(phenylmethyl)-3(R)-piperidinyl]-5H-pyrazolo[4,3-c]pyridine-5-carboxamide] | < 20
3 | Cn1cc2cc(-c3n[nH]c4c3CN(C(=O)N[C@@H]3CCCN(Cc5c(F)cccc5F)C3)CC4)ccc2n1 [Compound 133, N[1-[(2,6-difluorophenyl)-methyl]-3(R)-piperidinyl]-1,4,6,7-tetrahydro-3-(2-methyl-2H-indazol-5-yl)-5H-pyrazolo[4,3-c]pyridine-5-carboxamide] | 21 to 100
4 | Cc1cc(-c2n[nH]c3c2CN(C(=O)NC2(C)CCCN(Cc4csc5ccccc45)C2)CC3)ccn1 (stereo not shown) [Compound 88, N-[1-(benzo[b]thien-3-ylmethyl)-3-methyl-3-piperidinyl]-1,4,6,7-tetrahydro-3-(2-methyl-4-pyridinyl)-5H-pyrazolo[4,3-c]pyridine-5-carboxamide] | 101 to 1000
5 | Cc1nc2ccc(-c3n[nH]c4c3CN(C(=O)N[C@@H]3CCCN(Cc5c(F)cccc5F)C3)CC4)cc2s1 [Compound 172, N-[1-[(2,6-difluorophenyl)methyl]-3(R)-piperidinyl]-1,4,6,7-tetrahydro-3-(2-methyl-6-benzothiazolyl)-5H-pyrazolo[4,3-c]pyridine-5-carboxamide] | < 20
6 | CS(=O)(=O)c1cccc(CC(=O)N2CCc3[nH]nc(-c4ccncc4)c3C2)c1 [Compound 31] | 101 to 1000
7 | O=C(N[C@@H]1CCCN(Cc2c(F)cccc2C(F)(F)F)C1)N1CCc2[nH]nc(-c3ccncc3)c2C1 [Compound 68, N-[1-[[2-fluoro-6-(trifluoromethyl)phenyl]meth-yl]-3(R)-piperidinyl]-1,4,6,7-tetrahydro-3-(4-pyridinyl)-5H-pyrazolo[4,3-c]pyridine-5-carboxamide] | 21 to 100
8 | O=C(NC1CNCC(c2ccccc2)C1)N1CCc2[nH]nc(-c3ccncc3)c2C1 (stereo not shown) [Compound 47, 1,4,6,7-tetrahydro-N-(5-phenyl-3-piperidinyl)-3-(4-pyridinyl)-5H-pyrazolo[4,3-c]pyridine-5-carboxamide] | < 20
9 | Cc1nc2ccc(-c3n[nH]c4c3CN(C(=O)N[C@@H]3CCCN(Cc5coc6ccccc56)C3)CC4)cc2s1 [Compound 176, N-[1-(3-benzofuranylmethyl)-3(R)-piperidinyl]-1,4,6,7-tetrahydro-3-(2-methyl-6-benzothiazolyl)-5H-pyrazolo[4,3-c]pyridine-5-carboxamide] | < 20
10 | Cc1cc(-c2n[nH]c3c2CN(C(=O)NC2CC(C)CN(Cc4c(C)cccc4C)C2)CC3)ccn1 (stereo not shown) [Compound 94, N-[1-[(2,6-dimethylphenyl)-methyl]-5-methyl-3-piperidinyl]-1,4,6,7-tetrahydro-3-(2-methyl-4-pyridinyl)-5H-pyrazolo[4,3-c]pyridine-5-carboxamide] | 21 to 100
11 | Cc1cc(-c2n[nH]c3c2CN(C(=O)NC2CC(C)CN(Cc4c(F)cccc4Cl)C2)CC3)ccn1 (stereo not shown) [Compound 91, N-[1-[(2-chloro-6-fluorophenyl)methyl]-5-methyl-3-piperidinyl)-1,4,6,7-tetrahydro-3-(2-methyl-4-pyridinyl)-5H-pyrazolo[4,3-c]pyridine-5-carboxamide] | < 20
12 | Cn1cnc(CN2CCC[C@@H](NC(=O)N3CCc4[nH]nc(-c5ccncc5)c4C3)C2)c1 [Compound 64, 1,4,6,7-tetrahydro-N-[1-[(1-methyl-1H-imidazoL-4-yl)methyl]-3(R)-piperidinyl]-3-(4-pyridinyl)-5H-pyrazolo[4,3-c]pyridine-5-carboxamide] | 101 to 1000
13 | COc1cccc(F)c1CN1CC[C@@H](NC(=O)N2CCc3[nH]nc(-c4ccnc(C)c4)c3C2)C1 [Compound 116, N-[1-[(2-fluoro-6-methoxyphenyl)methyl]-3(R)-pyrrolidinyl]-1,4,6,7-tetrahydro-3-(2-methyl-4-pyridinyl)-5H-pyrazolo[4,3-c]pyridine-5-carboxamide] | 21 to 100
14 | Cc1cc(-c2n[nH]c3c2CN(C(=O)N[C@@H]2CCCN(Cc4c(F)cccc4F)C2)CC3)ccn1 [Compound 81, N-[1-[(2,6-difluorophenyl)-methyl]-3(R)-piperidinyl]-1,4,6,7-tetrahydro-3-(2-methyl-4-pyridinyl)-5H-pyrazolo[4,3-c]pyridine-5-carboxamide] | 21 to 100
15 | Cc1cc(-c2n[nH]c3c2CN(C(=O)NC2CC(C(=O)O)CN(Cc4c(F)cccc4F)C2)CC3)ccn1 (stereo not shown) [Compound 83, 1-[(2,6-difluorophenyl)-methyl]-5-[[[1,4,6,7-tetrahydro-3-(2-methyl-4-pyridinyl)-5H-pyrazolo[4,3-c]pyridin-5-yl]carbonyl]amino]-3-piperidinecarboxylic acid] | 101 to 1000
16 | Cc1cccc(C)c1CN1CCC[C@@H](NC(=O)N2CCc3[nH]nc(-c4ccc5nn(C)cc5c4)c3C2)C1 [Compound 126, N-[1-[(2,6-dimethylphenyl)-methyl]-3(R)-piperidinyl]-1,4,6,7-tetrahydro-3-(2-methyl-2H-indazol-5-yl)-5H-pyrazolo[4,3-c]pyridine-5-carboxamide] | < 20

Row | Structure (SMILES) | IC50 [nM]
17 | Cc1nc2cc(-c3n[nH]c4c3CN(C(=O)N[C@@H]3CCCN(Cc5cccc6ncccc56)C3)CC4)ccc2o1 [Compound 146, 1,4,6,7-tetrahydro-3-(2-methyl-5-benzoxazolyl)-N-[1-(5-quinolinylmethyl)-3(R)-piperidinyl]-5H-pyrazolo[4,3-c]pyridine-5-carboxamide] | 21 to 100
18 | Cc1cc(-c2n[nH]c3c2CN(C(=O)NC2CCC(c4ccccc4)NC2)CC3)ccn1 (stereo not shown) [Compound 105, 1,4,6,7-tetrahydro-3-(2-methyl-4-pyridinyl)-N-(6-phenyl-3-piperidinyl)-5H-pyrazolo[4,3-c]pyridine-5-carboxamide] | 101 to 1000
19 | CC(C(=O)N1CCc2[nH]nc(-c3ccncc3)c2C1)c1ccccc1Cl (stereo not shown) [Compound 41, 5-[2-(2-chlorophenyl)-1-oxopropyl]-4,5,6,7-tetrahydro-3-(4-pyridinyl)-1H-pyrazolo[4,3-c]pyridine] | 1000 to 100000
20 | COc1ccc(CN2CCC[C@@H](NC(=O)N3CCc4[nH]nc(-c5ccnc(C)c5)c4C3)C2)c2ccccc12 [Compound 99, 1,4,6,7-tetrahydro-N-[1-[(4-Methoxy-1-naphthalenyl)-methyl]-3(R)-piperidinyl]-3-(2-methyl-4-pyridinyl)-5H-pyrazolo[4,3-c]pyridine-5-carboxamide] | 21 to 100
21 | Cc1cc(-c2n[nH]c3c2CN(C(=O)N[C@@H]2CCN(Cc4ccccc4Cl)C2)CC3)ccn1 [Compound 118, N-[1-[(2-chlorophenyl)-methyl]-3(R)-pyrrolidinyl]-1,4,6,7-tetrahydro-3-(2-methyl-4-pyridinyl)-5H-pyrazolo[4,3-c]pyridine-5-carboxamide] | 21 to 100
22 | Cc1cc(-c2n[nH]c3c2CN(C(=O)NC2CCC(c4ccccc4)N(Cc4c(F)cccc4F)C2)CC3)ccn1 (stereo not shown) [Compound 106, N-[1-[(2,6-difluorophenyl)-methyl]-6-phenyl-3-piperidinyl]-1,4,6,7-tetrahydro-3-(2-methyl-4-pyridinyl)-5H-pyrazolo[4,3-c]pyridine-5-carboxamide] | 101 to 1000
23 | COc1cccc(CC(=O)N2CCc3[nH]nc(-c4ccncc4)c3C2)c1 [Compound 3, 4,5,6,7-tetrahydro-5-[(3-methoxyphenyl)acetyl]-3-(4-pyridinyl)-1H-pyrazolo[4,3-c]pyridine] | 1000 to 100000
24 | CC1(C(=O)Nc2ccccc2OCc2cccnc2)CCc2[nH]nc(-c3ccncc3)c2C1 (stereo not shown) [Compound 14, 4,5,6,7-tetrahydro-5-methyl-3-(4-pyridinyl)-N-[2-(3-pyridinylmethoxy)phenyl]-1H-indazole-5-carboxamide] | 1000 to 100000
25 | O=C(N[C@@H]1CCN(Cc2csc3ccccc23)C1)N1CCc2[nH]nc(-c3ccc(-c4ccccc4)nc3)c2C1 [Compound 129, N-[1-(benzo[b]thien-3-ylmethyl)-3(R)-pyrrolidinyl]-1,4,6,7-tetrahydro-3-(6-phenyl-3-pyridinyl)-5H-pyrazolo[4,3-c]pyridine-5-carboxamide] | 101 to 1000
26 | Cc1cc(-c2n[nH]c3c2CN(C(=O)NC2CN(Cc4c(F)cccc4F)CCC2F)CC3)ccn1 (mixture of isomers) [Compound 158, N-[cis/trans-1-[(2,6-difluorophenyl)methyl]-4-fluoro-3-piperidinyl]-1,4,6,7-tetrahydro-3-(2-methyl-4-pyridinyl)-5H-pyrazolo[4,3-c]pyridine-5-carboxamide] | 101 to 1000
27 | Cc1cc(-c2n[nH]c3c2CN(C(=O)NC2CC(C)CN(Cc4csc5ccccc45)C2)CC3)ccn1 (stereo not shown) [Compound 101, N-[1-(benzo[b]thien-3-ylmethyl)-5-methyl-3-piperidinyl]-1,4,6,7-tetrahydro-3-(2-methyl-4-pyridinyl)-5H-pyrazolo[4,3-c]pyridine-5-carboxamide] | 21 to 100
28 | O=C(CC1CCCNC1)N1CCc2[nH]nc(-c3ccncc3)c2C1 (stereo not shown) [Compound 51, 4,5,6,7-tetrahydro-5-(3-piperidinylacetyl)-3-(4-pyridinyl)-1H-pyrazolo[4,3-c]pyridine] | 101 to 1000
29 | O=C(N[C@@H]1CCCN(Cc2csc3ccccc23)C1)N1CCc2[nH]nc(-c3ccc4c(c3)CCO4)c2C1 [Compound 183, N-[1-(benzo[b]thien-3-ylmethyl)-3(R)-piperidinyl]-3-(2,3-dihydro-5-benzofuranyl)-1,4,6,7-tetrahydro-5H-pyrazolo[4,3-c]pyridine-5-carboxamide] | < 20
30 | O=C(Cc1ccccc1-c1cccnc1)N1CCc2[nH]nc(-c3ccncc3)c2C1 [Compound 33, 4,5,6,7-tetrahydro-3-(4-pyridinyl)-5-[[2-(3-pyridinyl)phenyl]acetyl]-1H-pyrazolo[4,3-c]pyridine] | 101 to 1000
31 | O=C(Cc1ccc(-c2ccccc2)cc1)N1CCc2[nH]nc(-c3ccncc3)c2C1 [Compound 32, 5-([1,1′-biphenyl]-4-ylacetyl)-4,5,6,7-tetrahydro-3-(4-pyridinyl)-1H-pyrazolo[4,3-c]pyridine] | 101 to 1000
